Five compounds from PMC11843613, “Further Optimization of the mGlu1 PAM VU6024578/BI02982816: Discovery and Characterization of VU6033685” (ACS Chemical Neuroscience, 2025) can be followed below.

In one assay the target is T1, CYP450 2D6 (Homo sapiens, UniProt P10635).
T1 construct: 0.1 mg/mL human liver microsomes (HLM); from tissue; host or cells: human liver microsomes
The assay can be described thus: Inhibition of cytochrome P450 enzymes in human liver microsomes, 2D6. Type of assay: in vitro ADME. On the procedure:
Inhibition of Cytochrome P450 Enzymes: A cocktail of substrates for cytochrome P450 enzymes (1A2: Phenacetin, 10 µM; 2C9: Diclofenac, 5 µM; 2D6: Dextromethorphan, 5 µM; 3A4:
Midazolam, 2 µM) were mixed for cocktail analysis. For P450 2C19, the substrate stock (Mephenytoin, 40 µM )and substrate mix were prepared separately for discrete analysis. The […]
positive control for pan-P450 inhibition (miconazole) was included alongside each test compound […]
A reaction mixture of 100 mM Kpi, pH 7.4, 0.1 mg/mL human liver microsomes (HLM) and Substrate Mix is prepared and aliquoted into a 96-deepwell block. Test compound and positive control (in duplicate) were then added such that the final concentration of test compound ranged from 0.1 – 30 µM. The plate was vortexed briefly and then pre-incubated at 37 °C while shaking for 15 minutes. The reaction was initiated with the addition of NADPH (1 mM final concentration). The incubation continued for 8 min and the reaction quenched by 2x volume of cold acetonitrile containing internal standard (50 nM carbamazepine). The plate was centrifuged for 10 minutes (4000 rcf, 4°C) and the resulting supernatant diluted 1:1 with water for LC/MS/MS analysis. A 12 point standard curve of substrate metabolites over the range of 0.98 nM to 2000 […]
Samples were analyzed via electrospray ionization (ESI) on an AB Sciex API-4000 (Foster City, CA) triple-quadrupole instrument that was coupled with Shimadzu LC-10AD pumps (Columbia, MD) and a Leap Technologies CTC PAL auto-sampler (Carrboro, NC). Analytes were separated by gradient elution using a Fortis C18 3.0 x 50 mm, 3 µm column (Fortis Technologies Ltd, Cheshire, UK) thermostated at 40°C. HPLC mobile phase A was 0.1% formic acid in water (pH unadjusted), mobile phase B was 0.1% formic acid in acetonitrile (pH unadjusted). The gradient […]
90% B for 0.1 min and returned to 10% B in 0.1 min followed by a re-equilibration (0.9 min). The total run time was 2.5 min and the HPLC flow rate was 0.5 mL/min. The source temperature was set at 500°C and mass spectral analyses were performed using multiple reaction monitoring (MRM), with transitions specific for each compound utilizing a Turbo-Ionspray® source in positive ionization mode (5.0 kV spray voltage).
The IC50 values for each compound were obtained for the individual CYP enzymes by quantitating the inhibition of metabolite formation for each probe substrate. A 0 µM compound condition (or control) was set to 100% enzymatic activity and the effect of increasing test compound concentrations on enzymatic activity could then be calculated from the % of control activity.
Curves were fitted using XLfit 5.2.2 (four-parameter logistic model, equation 201) to determine the concentration that produces half-maximal inhibition (IC50).
(In general: Microsomes from liver hold many membrane-bound enzymes, among them those of drug oxidation.)

For the next assay, the target named is T2, human mGlu1 (Homo sapiens, UniProt Q13255).
T2 construct: expressed in transfected cells; pcDNA5/TO)
T2 sequence (Q13255 19-1194): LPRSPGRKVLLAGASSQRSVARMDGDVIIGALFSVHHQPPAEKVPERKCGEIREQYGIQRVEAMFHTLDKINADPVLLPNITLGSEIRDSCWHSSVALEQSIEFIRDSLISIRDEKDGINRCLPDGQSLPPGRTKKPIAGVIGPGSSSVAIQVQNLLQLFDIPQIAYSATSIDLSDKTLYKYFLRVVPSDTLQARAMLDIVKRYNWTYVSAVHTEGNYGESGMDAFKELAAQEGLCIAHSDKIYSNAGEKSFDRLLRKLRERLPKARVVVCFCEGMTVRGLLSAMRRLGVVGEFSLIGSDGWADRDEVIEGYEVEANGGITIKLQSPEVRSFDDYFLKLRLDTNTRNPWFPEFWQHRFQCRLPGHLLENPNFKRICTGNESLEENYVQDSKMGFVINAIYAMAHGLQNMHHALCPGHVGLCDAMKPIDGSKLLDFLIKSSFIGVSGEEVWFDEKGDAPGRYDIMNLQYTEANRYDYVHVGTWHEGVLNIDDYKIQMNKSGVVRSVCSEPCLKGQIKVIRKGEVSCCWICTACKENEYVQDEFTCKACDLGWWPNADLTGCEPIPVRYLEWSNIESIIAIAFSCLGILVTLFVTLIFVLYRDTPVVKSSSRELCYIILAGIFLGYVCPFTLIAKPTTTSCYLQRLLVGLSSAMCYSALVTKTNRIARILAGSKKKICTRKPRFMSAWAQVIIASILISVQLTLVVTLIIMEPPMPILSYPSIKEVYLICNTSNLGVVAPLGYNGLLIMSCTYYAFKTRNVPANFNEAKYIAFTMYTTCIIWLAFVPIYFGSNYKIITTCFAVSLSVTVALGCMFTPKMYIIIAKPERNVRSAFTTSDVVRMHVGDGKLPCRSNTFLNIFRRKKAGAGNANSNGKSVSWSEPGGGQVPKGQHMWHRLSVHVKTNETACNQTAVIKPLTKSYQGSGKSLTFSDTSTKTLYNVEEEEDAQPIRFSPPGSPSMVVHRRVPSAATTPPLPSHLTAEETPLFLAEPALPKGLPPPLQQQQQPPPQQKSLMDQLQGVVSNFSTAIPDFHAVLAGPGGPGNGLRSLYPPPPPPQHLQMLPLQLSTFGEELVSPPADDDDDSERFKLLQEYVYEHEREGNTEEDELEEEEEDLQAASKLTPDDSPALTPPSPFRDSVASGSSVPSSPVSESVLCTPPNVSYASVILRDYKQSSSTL
The assay can be described thus: mGlu1 PAM calcium mobilization assay (human). Type of assay: cell-based. The note with it: for fold increase in mGlu1 PAM potency over 5: human mGlu1 EC50 ratio versus 5. An excerpt: Molecular Pharmacology. Tetracycline-tested fetal bovine serum (FBS) was purchased from Atlanta Biologicals (Lawrenceville, GA), and all other tissue culture reagents and Fluo-4-acetoxymethylester (Fluo-4-AM) were purchased from Life Technologies (Carlsbad, CA).
Tetracycline hydrochloride (Sigma), L-glutamic acid (Tocris, Minneapolis, MN), and (S)-3,5-dihydroxyphenylglycine (DHPG) (Abcam, Cambridge, MA). EZ-Link Sulfo-NHS-SS-Biotin and NeutrAvidin agarose beads (Pierce Biotechnology, Rockford, IL).
Cell Culture and Mutagenesis. Tetracycline-inducible human mGlu 1 WT-T-RExTM-293 cells (Wu et al, Science 2014) were cultured at 37 °C in Dulbecco’s Modified Eagle Medium (DMEM) growth medium containing 10% Tet-tested FBS, 2 mM L-glutamine, 20 mM HEPES, 0.1 mM non-essential amino acids, 1 mM sodium pyruvate, antibiotic/antimycotic, 100 µg/mL hygromycin and 5 µg/mL blasticidin in the presence of 5% CO 2. […]
Calcium Mobilization Assay. To determine the potency of mGlu 1 PAMs in calcium assays, Ca flux was measured as previously described in ACS Chem. Bio. 2014, 9, 2334-2346. Briefly, the day before the assay, human mGlu1 WT-T-RExTM-293 cells were plated in black-walled, clear-bottomed, poly-D-lysine coated 96-well plates at 80,000 cells/100 µL assay medium (DMEM supplemented with 10% dialyzed FBS, 20 mM HEPES, and 1 mM sodium pyruvate) containing 50 ng/mL of tetracycline to induce mGlu1 expression. The next day, media was removed and the cells were incubated with 50 µL of 1.15 µM Fluo-4 AM dye solution prepared in assay buffer (buffer (Hank’s balanced salt solution, 20 mM HEPES, and 2.5 mM probenecid) for 45 min at 37 °C, the dye was removed and replaced with 45 µL of assay buffer. Then, calcium flux was measured using Flexstation II (Molecular Devices, Sunnyvale, CA). Compounds serially diluted […]
at half log concentrations in DMSO were further diluted in assay buffer. The compounds or DMSO vehicle were added to cells and incubated for 2.5 min and an EC20 concentration of glutamate was added and incubated for 1 min. An ECmax concentration of glutamate was also added to cells that were incubated with DMSO vehicle to accurately calculate the EC20 calcium response. Data were normalized by subtracting the basal florescent peak before EC20 agonist addition from the maximal peak elicited by EC20 agonist and PAMs. Using GraphPad Prism 5.0, the concentration response curves were generated and the potencies of the mGlu1 PAMs were determined. […]
In general terms: Calcium flux is commonly read through the fluorescence of an indicator in the cells.

Values joined by “and” are separate entries in the source; they are usually repeats but may differ in a detail not shown here. Identical values can stand only once. Some results are limits rather than exact numbers.

T1 sequence (P10635 whole entry): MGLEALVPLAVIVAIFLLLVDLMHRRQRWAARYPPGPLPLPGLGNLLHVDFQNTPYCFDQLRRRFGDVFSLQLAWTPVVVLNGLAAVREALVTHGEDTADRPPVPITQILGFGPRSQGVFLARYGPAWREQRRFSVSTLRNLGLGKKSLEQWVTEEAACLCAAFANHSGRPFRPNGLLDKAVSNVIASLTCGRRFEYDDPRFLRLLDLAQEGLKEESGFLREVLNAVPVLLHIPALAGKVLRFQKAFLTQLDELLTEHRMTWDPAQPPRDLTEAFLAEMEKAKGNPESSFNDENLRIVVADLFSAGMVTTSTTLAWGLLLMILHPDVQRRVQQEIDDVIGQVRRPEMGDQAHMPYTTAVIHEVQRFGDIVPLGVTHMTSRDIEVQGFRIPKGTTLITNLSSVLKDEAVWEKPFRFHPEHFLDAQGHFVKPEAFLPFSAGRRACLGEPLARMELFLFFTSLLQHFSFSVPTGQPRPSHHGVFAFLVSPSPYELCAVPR

By IC50 is commonly meant the point on the concentration scale where inhibition reaches its midpoint. A high value points to lower potency. As a reminder, the EC50 is the midpoint of the concentration-response curve. `Cn1nc(-c2ccnn2C)cc1CNC(=O)c1cc(-n2cccn2)ccc1Cl` [compound 5]: at CYP450 2D6, the IC50 is more than 30000 nM. On human mGlu1, the EC50 was 527 nM and 551 nM; the “human mGlu1 Glu Max” value was determined as 76%.

`Cc1nc2c(F)cccc2cc1CNC(=O)c1cc(-n2cccn2)ccc1Cl` [compound 7] showed an IC50 at CYP450 2D6 of more than 30000 nM. At human mGlu1, the EC50 came out at 17 nM, the “human mGlu1 Glu Max” value came to 56% and the “fold increase in mGlu1 PAM potency over 5” value was approximately 31 fold.

`Cc1nc(C2CC2)ccc1CNC(=O)c1cc(-n2cccn2)ccc1Cl` [compound 8] had an IC50 against CYP450 2D6 of more than 30000 nM. Moreover, on human mGlu1, the EC50 came out at 39 nM, the “human mGlu1 Glu Max” value is listed as 65% and the “fold increase in mGlu1 PAM potency over 5” value is given as approximately 14 fold.

For `Cc1nc2ccccc2cc1CNC(=O)c1cc(-n2cccn2)ccc1Cl` [compound 6], on CYP450 2D6, the IC50 was found to be 6900 nM. Further, at human mGlu1, the EC50 was found to be 32 nM and the “human mGlu1 Glu Max” value is on record as 56%.

Take `Cn1cc(-c2cc(CNC(=O)c3cc(-c4ccco4)ccc3Cl)n(C)n2)cn1` [compound 4]: on CYP450 2D6, the IC50 is more than 30000 nM. At human mGlu1, the EC50 is 28 nM and the “human mGlu1 Glu Max” value was 72%.
